Patent publication EP4745134A1 (Jiangsu Yahong Meditech Co., Ltd., priority 2023, dated 2025)
Where two headings read alike, the source gives them in different places.

Key:
HCT116 MTAP KO cells = assay: Inhibitory activity against cell proliferation (CellTiter Glo, 6 days), HCT116 MTAP KO; assay type: cell-based; conditions: for IC50: HCT116 MTAP KO cells, 6 days, CellTiter Glo, read-out: HCT116 MTAP KO IC50; for Selectivity HCT 116-WT/ HCT116 MTAP KO: ratio of IC50 HCT116-WT / HCT116 MTAP KO
Outline: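 Viability IC50s come from CellTiter Glo luminescence after 6 days' exposure to compound (8 concentrations, 4-fold steps, top 10000 nM), relative to DMSO wells. Cells were MTAP-KO or WT HCT116, seeded at 250 per well in McCoy's 5A with 10% FBS and incubated overnight before dosing.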

HCT116-WT cells = assay: Inhibitory activity against cell proliferation (CellTiter Glo, 6 days), HCT116-WT; assay type: cell-based; conditions: HCT116-WT cells, 6 days, CellTiter Glo, read-out: HCT116-WT IC50
Protocol: HCT116-WT (ATCC, CCL-247) and HCT116 MTAP KO (Nanjing Cobioer, CBP75002) cells were seeded into white low-transparency sterile 96-well cell culture plates at a density of 250 cells per well respectively, and the culture medium was McCoy's 5A Medium+10% FBS. The plates were placed under the condition of 37°C and 5% CO2 to be cultured overnight. The cells were treated with 4-fold serially diluted compounds of 8 concentration points starting at an initial concentration of 10000 nM, and the last two columns were used as control wells to which only DMSO was added. The drug-treated cells were further cultured for 6 days. On day 7, CellTiter Glo® reagent was added at 50 uL per well, and after reaction under shaking for 10 minutes at room temperature, the chemiluminescence signals were detected for the well plates through the chemiluminescence detection method using a BIOTEK H1 multifunctional microplate-reader. The IC50 values for inhibition of the compounds on cell viability were calculated in X1fit 5.0 software. Table 2. IC50 values for inhibition of the compounds on HCT116 MTAP KO/WT cell growth

SMILES | IC50 (HCT116 MTAP KO cells; Homo sapiens, HCT-116, 144 h) [nM] | IC50 (HCT116-WT cells; 144 h) [nM] | Selectivity HCT 116-WT/ HCT116 MTAP KO (HCT116 MTAP KO cells) | IC50 (HCT116 MTAP KO cells) [nM] | IC50 (HCT116-WT cells) [nM]
Cc1cc2cc(C(=O)N(Cc3ccc(-c4cnc5c(cnn5C)c4)cn3)N(C)c3ncccn3)ccc2nc1N [Example 198, 2-amino-N',3-dimethyl-N-((5-(1-methyl-1H-pyrazolo[3,4-b]pyridin-5-yl)pyridin-2-yl)methyl)-N'-(pyrimidin-2-yl)quinoline-6-carbohydrazide] |  |  | 26.09 | 32 | 835
Cc1cc2cc(C(=O)N(Cc3ccc(-c4cnoc4)cn3)N(C)c3ncccn3)ccc2nc1N [Example 182, 2-amino-N-((5-(isoxazol-4-yl)pyridin-2-yl)methyl)-N',3-dimethyl-N'-(pyrimidin-2-yl)quinoline-6-carbohydrazide] | 131 | 3390 | 25.89 |  | 
Cc1cc2cc(C(=O)N(Cc3ccc(-c4cnc5c(cnn5C)c4)cn3)N(C)c3ncccn3)ccc2nc1N [Example 190, 2-amino-N',3-dimethyl-N-((5-(1-methyl-1H-pyrazolo[3,4-b]pyridin-5-yl)pyridin-2-yl)methyl)-N'-(pyrimidin-2-yl)quinoline-6-carbohydrazide] | 32 | 835 | 26.09 |  | 
Cc1cc2nc(N)c3cnn(C)c3c2cc1C(=O)N1CCCN1c1ncc(-c2cnc3c(cnn3C)c2)cc1F [Example 482, (4-amino-1,7-dimethyl-1H-pyrazolo[4,3-c]quinolin-8-yl)(2-(3-fluoro-5-(1-methyl-1H-pyrazolo[3,4-b]pyridin-5-yl)pyridin-2-yl)pyrazolidin-1-yl)methanone] | 60 | 5370 | 89.47 |  | 
Cc1cc2nc(N)c3cnn(C)c3c2cc1C(=O)N1CCCN1c1ncc(-c2ccsc2)cc1F [Example 483, (4-amino-1,7-dimethyl-1H-pyrazolo[4,3-c]quinolin-8-yl)(2-(3-fluoro-5-(thien-3-yl)pyridin-2-yl)pyrazolidin-1-yl)methanone] | 100 | 4170 | 41.72 |  | 
Cn1ncc2c(N)nc3cc(Cl)c(C(=O)N4CC(C)(F)CN4c4cccc(F)n4)cc3c21 (stereo not drawn) [Example 426, (4-amino-7-chloro-1-methyl-1H-pyrazolo [4,3-c]quinolin-8-yl)(4-fluoro-2-(6-fluoropyridin-2-yl)-4-methylpyrazolidin-1-yl)m ethanone] | 49 | 700 | 14.29 |  | 
Cc1cc2nc(N)c3cnn(C)c3c2cc1C(=O)N1CCCN1c1ncc(C2CCN(C)CC2)cc1F [Example 485, (4-amino-1,7-dimethyl-1H-pyrazolo[4,3-c]quinolin-8-yl)(2-(3-fluoro-5-(1-methylpiperid-4-yl)pyridin-2-yl)pyrazolidin-1-yl)methanone] | 415 | 4830 | 11.64 |  | 
Cc1csc(-c2ccc(CN(C(=O)c3ccc4nc(N)c(C)cc4c3)N(C)c3ncccn3)nc2)n1 [Example 227, 2-amino-N',3-dimethyl-N-((5-(4-methylthiazol-2-yl)pyridin-2-yl)methyl)-N'-(pyrimidin-2-yl)quinoline-6-carbohydrazide] | 140 | 3420 | 24.44 |  | 
Cc1csc(-c2ccc(CN(C(=O)c3ccc4nc(N)c(C)cc4c3)N(C)c3ncccn3)nc2)c1 [Example 146, 2-amino-N',3-dimethyl-N-((5-(4-methylthien-2-yl)pyridin-2-yl)methyl)-N'-(pyrimidin-2-yl)quinoline-6-carbohydrazide] | 75 | 1190 | 15.85 |  | 
Cc1cc2cc(C(=O)N(Cc3ccc(-c4ccc(N(C)C5CCC5)nc4)cn3)N(C)c3ncccn3)ccc2nc1N [Compound 261, 2-amino-N-((6'-(cyclobutyl(methyl)amino)-[3,3'-bipyridin]-6-yl)methyl)-N',3-dim ethyl-N'-(pyrimidin-2-yl)quinoline-6-carb ohydrazide] | 40 | 684 | 17.10 |  | 
Cc1cc2nc(N)c3cnn(C)c3c2cc1C(=O)N1C(C)CCN1c1ncccc1F (stereo not drawn) [Example 376, (4-amino-1,7-dimethyl-1H-pyrazolo[4,3-c]quinolin-8-yl)(2-(3-fluoropyridin-2-yl)-5-methylpyrazolidin-1-yl)methanone] |  |  | 35.48 | 105 | 3720
[2H]C([2H])([2H])c1cc2cc(C(=O)N(Cc3ccc(C(F)(F)F)cn3)Nc3ncccn3)ccc2nc1N [Example 312, 2-amino-3-(methyl-D3)-N'-(pyrimidin-2-yl)-N-((5-(trifluoromethyl)pyridin-2-yl)methyl)quinoline-6-carbohydrazide] | 94 | 3040 | 32.33 |  | 
Cc1cc2nc(N)c3cnn(C)c3c2cc1C(=O)N1CCCN1c1ncc(C2=CCN(C)CC2)cc1F [Example 470, (4-amino-1,7-dimethyl-1H-pyrazolo[4,3-c]quinolin-8-yl)(2-(5-fluoro-1'-methyl-1', 2',3',6'-tetrahydro-[3,4'-bipyridine]-6-yl)pyrazolidin-1-yl)methanone] | 94 | 3040 | 32.33 |  | 
CN(c1ncccn1)N(Cc1ccc(C(F)(F)F)cn1)C(=O)c1ccc2nc(N)c(Cl)cc2c1 [Example 105, 2-amino-3-chloro-N'-methyl-N'-(pyrimidin-2-yl)-N-((5-(trifluoromethyl)pyridin-2-yl)methyl)quinoline-6-carbohydrazide] | 202 | 3950 | 19.56 |  | 

Continued by falling IC50 (HCT116 MTAP KO cells; Homo sapiens, HCT-116, 144 h), values first:

IC50 (HCT116 MTAP KO cells; Homo sapiens, HCT-116, 144 h) [nM] | IC50 (HCT116-WT cells; 144 h) [nM] | SMILES | Selectivity HCT 116-WT/ HCT116 MTAP KO (HCT116 MTAP KO cells) | IC50 (HCT116 MTAP KO cells) [nM] | IC50 (HCT116-WT cells) [nM]
29 | 708 | Cc1cc2cc(C(=O)N(Cc3ccc(-c4cnc5nn(C)cc5c4)cn3)N(C)c3ncccn3)ccc2nc1N [Example 150, 2-amino-N',3-dimethyl-N-((5-(2-methyl-2H-pyrazolo[3,4-b]pyridin-5-yl)pyridin-2-yl)methyl)-N'-(pyrimidin-2-yl)quinoline-6-carbohydrazide] | 24.41 |  | 
27 | 279 | Cc1cc2cc(C(=O)N(Cc3ccc(-c4nc(C#N)cs4)cn3)N(C)c3ncccn3)ccc2nc1N [Example 230, 2-amino-N-((5-(4-cyanothiazol-2-yl)pyridin-2-yl)methyl)-N',3-dimethyl-N'-(pyrimidin-2-yl)quinoline-6-carbohydrazide] | 10.33 |  | 
26 | 743 | Cn1ncc2c(N)nc3cc(Cl)c(C(=O)N4CC(C)(F)CN4c4ncc(Br)cc4F)cc3c21 (stereo not drawn) [Example 420, (4-amino-7-chloro-1-methyl-1H-pyrazolo [4,3-c]quinolin-8-yl)(2-(5-bromo-3-fluor opyridin-2-yl)-4-fluoro-4-methylpyrazolidin-1-yl)methanone] | 28.58 |  | 
18 | 921 | CCn1cc(-c2ccc(CN(C(=O)c3ccc4nc(N)c(C)cc4c3)N(C)c3ncccn3)nc2)cn1 [Example 206, 2-amino-N-((5-(1-ethyl-1H-pyrazol-4-yl)pyridin-2-yl)methyl)-N',3-dimethyl-N'-(pyrimidin-2-yl)quinoline-6-carbohydrazide] | 51.17 |  | 
18 | 482 | Cc1cc2cc(C(=O)N(Cc3ccc(-c4ccc(N(C)CCO)nc4)cn3)N(C)c3ncccn3)ccc2nc1N [Example 246, 2-amino-N-((6'-((2-hydroxyethyl) (methyl)amino)-[3,3'-bipyridine]-6-yl)methyl)-N',3-dimethyl-N'-(pyrimidin-2-yl)quinoline-6-carbohydrazide] | 26.78 |  | 
17 | 404 | Cc1cc2cc(C(=O)N(Cc3ccc(I)cn3)N(C)c3ncccn3)ccc2nc1N [Example 263, 2-amino-N-((5-iodopyridin-2-yl)methyl)-N',3-dimethyl-N'-(pyrimidin-2-yl)quinoline-6-carbohydrazide] | 23.76 |  | 
4.4 | 90 | CN(c1ncccc1F)N(Cc1ccc(C(F)(F)F)cn1)C(=O)c1ccc2nc(N)c3cnn(C)c3c2c1 [Example 74, 4-amino-N'-(3-fluoropyridin-2-yl)-N ',1-dimethyl-N-((5-(trifluoromethyl)pyridin-2-yl)methyl)-1H-pyrazolo[4,3-c]quinoline-8-carbohydrazide] | 20.45 |  | 
3.9 | 63 | CN(c1ncccn1)N(Cc1ccc(-c2cnn(C(F)(F)F)c2)cn1)C(=O)c1ccc2nc(N)c3cnn(C)c3c2c1 [Example 248, 4-amino-N',1-dimethyl-N'-(pyrimidin-2-yl)-N-((5-(1-(trifluoromethyl)-1H-pyrazol-4-yl)pyridin-2-yl)methyl)-1H-pyrazolo[4,3-c]quinoline-8-carbohydrazide] | 16.15 |  | 
